Literature values in US9358096B2, “Methods of treatment with drug eluting stents with prolonged local elution profiles with high local concentrations and low systemic concentrations” (Abbott Laboratories, priority 2007, dated 2016).

What was measured:
[1] = cited from earlier work
[2] = kidney transplant recipients; usual oral dose of sirolimus of 2 mg per day; cited from earlier work

CO[C@H]1C[C@@H]2CC[C@@H](C)[C@@](O)(O2)C(=O)C(=O)N2CCCC[C@H]2C(=O)O[C@H]([C@H](C)C[C@@H]2CC[C@@H](O)[C@H](OC)C2)CC(=O)[C@H](C)/C=C(\C)[C@@H](O)[C@@H](OC)C(=O)[C@H](C)C[C@H](C)/C=C/C=C/C=C/1C [sirolimus]
peak concentration of sirolimus, one patient ([1]; after receiving three 80 mm stents configured as stent 1): 35.5 ng/mL
mean systemic sirolimus concentration ([1]; patients treated with stent 1, one hour after stenting): 20.4 ± 10.0 ng/mL
trough concentration [2]: 9 ng/mL
